Assays:
Format in all cases: in vivo
[1] = test system: sedge, umbrella (small-flower umbrella sedge, Cyperus difformis); experiment: Test B flooded paddy test; details: Flood, 250 g ai/ha, 0 to 100 scale where 0 is no effect and 100 is complete control; for Plant response rating, Sedge, Umbrella: 13 to 15 d
Summary of the method: (§1)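 Plants at 2-leaf stage flooded to 3 cm above soil, with compounds applied directly to paddy water and that depth maintained. Plants kept in greenhouse 13–15 d. Visual rating versus controls on a 0 (no effect) to 100 (complete control) scale.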

rice (Oryra sativa) = experiment: Test B flooded paddy test; details: Flood, 250 g ai/ha; for Plant response rating, Rice: 0 to 100 scale where 0 is no effect and 100 is complete control, 13 to 15 d
Summary of the method: as §1

[2] = test system: ducksalad (Heteranthera limosa); experiment: Test B flooded paddy test; details: Flood, 250 g ai/ha; for Plant response rating, Ducksalad: 0 to 100 scale where 0 is no effect and 100 is complete control, 13 to 15 d
Summary of the method: as §1

[3] = test system: barnyardgrass (Echinochloa crus-galli); experiment: Test B flooded paddy test; details: Flood, 250 g ai/ha; for Plant response rating, Barnyardgrass: 0 to 100 scale where 0 is no effect and 100 is complete control, 13 to 15 d
Summary of the method: as §1

[4] = test system: Galium (catchweed bedstraw, Galium aparine); experiment: Test A postemergence
Summary of the method: (§2)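 In a loam soil and sand blend, planted seeds got a preemergence directed soil spray, and young plants at the one- to two-leaf stage, 2–10 cm high, got a postemergence application; ~10 d greenhouse hold; injury rated visually, 0 = none, 100 = complete control.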

Kochia (Kochia scoparia) [5] = experiment: Test A postemergence
Summary of the method: as §2

[6] = test system: giant foxtail (Setaria faberii); experiment: Test A postemergence
Summary of the method: as §2

corn (Zea mays) = experiment: Test A postemergence
Summary of the method: as §2

[7] = test system: ragweed (common ragweed, Ambrosia elatior); experiment: Test A postemergence
Summary of the method: as §2

[8] = test system: pigweed (Amaranthus retroflexus); experiment: Test A postemergence
Summary of the method: as §2

[9] = test system: wheat (Triticum aestivum); experiment: Test A postemergence
Summary of the method: as §2

[10] = test system: blackgrass (Alopecurus myosuroides); experiment: Test A postemergence
Summary of the method: as §2

[11] = test system: barnyardgrass (Echinochloa crus-galli); experiment: Test A postemergence
Summary of the method: as §2

[12] = test system: ryegrass, Italian (Italian ryegrass, Lolium multiflorum); experiment: Test A postemergence
Summary of the method: as §2

Kochia (Kochia scoparia) [13] = experiment: Test A preemergence
Summary of the method: as §2

[14] = test system: giant foxtail (Setaria faberii); experiment: Test A preemergence
Summary of the method: as §2

[15] = test system: ragweed (common ragweed, Ambrosia elatior); experiment: Test A preemergence
Summary of the method: as §2

[16] = test system: pigweed (Amaranthus retroflexus); experiment: Test A preemergence
[17] = test system: barnyardgrass (Echinochloa crus-galli); experiment: Test A preemergence
Summary of the method: as §2

[18] = test system: ryegrass, Italian (Italian ryegrass, Lolium multiflorum); experiment: Test A preemergence
Summary of the method: as §2

[19] = 125 g ai/ha, postemergence, visual rating after approx. 10 d, 0 to 100 scale (0 no effect, 100 complete control)
[20] = 500 g ai/ha, postemergence, visual injury, 0 to 100 scale (0 no effect, 100 complete control), approx. 10 d
[21] = 125 g ai/ha, Preemergence, visual injury after approximately 10 d, 0 to 100 scale where 0 is no effect and 100 is complete control
[22] = 500 g ai/ha, preemergence, 0 to 100 scale, 0 = no effect, 100 = complete control
[23] = scale of 0 to 100 where 0 is no effect and 100 is complete control
[24] = 125 g ai/ha, Postemergence, visual injury after approximately 10 d, 0 to 100 scale where 0 is no effect and 100 is complete control
[25] = 125 g ai/ha, Preemergence, visual injury rating after approximately 10 d
[26] = 500 g ai/ha, preemergence, visual injury rating about 10 d after treatment, 0 to 100 scale (0 no effect, 100 complete control)

CN1CC(c2cc(F)cc(F)c2)C(C(=O)Nc2ccccc2C(F)(F)F)C1=O (centres unmarked) [Compound 647]
Plant response rating, Sedge, Umbrella [1]: 0 | Plant response rating, Rice (rice (Oryra sativa)): 40 | Plant response rating, Ducksalad [2]: 90 | Plant response rating, Barnyardgrass [3]: 75 | Plant response rating, Galium [4, 19]: 20 | Plant response rating, Galium [4, 20]: 50 | Plant response rating, Kochia (Kochia (Kochia scoparia) [5]; [19]): 0 | Plant response rating, Kochia (Kochia (Kochia scoparia) [5]; [20]): 20 | Plant response rating, Foxtail, Giant [6, 19]: 90 | Plant response rating, Foxtail, Giant [6, 20]: 90 | Plant response rating, Corn (corn (Zea mays); [19]): 10 | Plant response rating, Corn (corn (Zea mays); [20]): 40 | Plant response rating, Ragweed [7, 19]: 0 | Plant response rating, Ragweed [7, 20]: 10 | Plant response rating, Pigweed [8, 19]: 0 | Plant response rating, Pigweed [8, 20]: 0 | Plant response rating, Wheat [9, 19]: 20 | Plant response rating, Wheat [9, 20]: 50 | Plant response rating, Blackgrass [10, 19]: 20 | Plant response rating, Blackgrass [10, 20]: 60 | Plant response rating, Barnyardgrass [11, 19]: 80 | Plant response rating, Barnyardgrass [11, 20]: 90 | Plant response rating, Ryegrass, Italian [12, 19]: 0 | Plant response rating, Ryegrass, Italian [12, 20]: 0 | Plant response rating, Kochia (Kochia (Kochia scoparia) [13]; [21]): 0 | Plant response rating, Kochia (Kochia (Kochia scoparia) [13]; [22]): 0 | Plant response rating, Foxtail, Giant [14, 21]: 90 | Plant response rating, Foxtail, Giant [14, 22]: 100 | Plant response rating, Ragweed [15, 21]: 0 | Plant response rating, Ragweed [15, 22]: 40 | Plant response rating, Pigweed [16, 21]: 0 | Plant response rating, Pigweed [16, 22]: 60 | Plant response rating, Barnyardgrass [17, 21]: 90 | Plant response rating, Barnyardgrass [17, 22]: 90 | Plant response rating, Ryegrass, Italian [18, 21]: 30 | Plant response rating, Ryegrass, Italian [18, 22]: 30

CC(C)Oc1cccc(C2CN(C)C(=O)C2C(=O)Nc2ccccc2C(F)(F)F)c1 (centres unmarked) [Compound 652]
Plant response rating, Sedge, Umbrella [1]: 0 | Plant response rating, Rice (rice (Oryra sativa)): 0 | Plant response rating, Ducksalad [2]: 65 | Plant response rating, Barnyardgrass [3]: 40 | Plant response rating, Galium [4, 19]: 30 | Plant response rating, Galium [4, 20]: 50 | Plant response rating, Kochia (Kochia (Kochia scoparia) [5]; [19]): 0 | Plant response rating, Kochia (Kochia (Kochia scoparia) [5]; [20]): 0 | Plant response rating, Foxtail, Giant [6, 19]: 80 | Plant response rating, Foxtail, Giant [6, 20]: 90 | Plant response rating, Corn (corn (Zea mays); [19]): 30 | Plant response rating, Corn (corn (Zea mays); [20]): 60 | Plant response rating, Ragweed [7, 19]: 0 | Plant response rating, Ragweed [7, 20]: 0 | Plant response rating, Pigweed [8, 19]: 0 | Plant response rating, Pigweed [8, 20]: 20 | Plant response rating, Wheat [9, 19]: 0 | Plant response rating, Wheat [9, 20]: 40 | Plant response rating, Blackgrass [10, 19]: 60 | Plant response rating, Blackgrass [10, 20]: 70 | Plant response rating, Barnyardgrass [11, 19]: 90 | Plant response rating, Barnyardgrass [11, 20]: 90 | Plant response rating, Ryegrass, Italian [12, 19]: 50 | Plant response rating, Ryegrass, Italian [12, 20]: 70 | Plant response rating, Kochia (Kochia (Kochia scoparia) [13]; [21]): 0 | Plant response rating, Kochia (Kochia (Kochia scoparia) [13]; [22]): 30 | Plant response rating, Foxtail, Giant [14, 21]: 100 | Plant response rating, Foxtail, Giant [14, 22]: 100 | Plant response rating, Ragweed [15, 21]: 0 | Plant response rating, Ragweed [15, 22]: 0 | Plant response rating, Pigweed [16, 21]: 0 | Plant response rating, Pigweed [16, 22]: 30 | Plant response rating, Barnyardgrass [17, 21]: 90 | Plant response rating, Barnyardgrass [17, 22]: 90 | Plant response rating, Ryegrass, Italian [18, 21]: 60 | Plant response rating, Ryegrass, Italian [18, 22]: 60

Cc1ccc([C@H]2CN(C)C(=O)[C@@H]2C(=O)Nc2ccccc2[S+](C)[O-])cc1F (some centres unmarked) [Compound 988]
Sedge, Umbrella plant response rating [1]: 0 | Rice plant response rating (rice (Oryra sativa); [23]): 20 | Ducksalad plant response rating [2, 23]: 100 | Barnyardgrass plant response rating [3, 23]: 75 | Plant response rating, Galium [4, 24]: 50 | Plant response rating, Kochia (Kochia (Kochia scoparia) [5]; [24]): 10 | Plant response rating, Foxtail, Giant [6, 24]: 80 | Plant response rating, Corn (corn (Zea mays); [24]): 20 | Plant response rating, Ragweed [7, 24]: 0 | Plant response rating, Pigweed [8, 24]: 0 | Plant response rating, Wheat [9, 24]: 30 | Plant response rating, Blackgrass [10, 24]: 30 | Plant response rating, Barnyardgrass [11, 24]: 80 | Plant response rating, Ryegrass, Italian [12, 24]: 20 | Kochia plant response rating (0 to 100 scale, 0 is no effect, 100 is complete control) (Kochia (Kochia scoparia) [13]; [25]): 30 | Kochia plant response rating (Kochia (Kochia scoparia) [13]; [26]): 80 | Foxtail, Giant plant response rating (0 to 100 scale, 0 is no effect, 100 is complete control) [14, 25]: 90 | Foxtail, Giant plant response rating [14, 26]: 90 | Ragweed plant response rating (0 to 100 scale, 0 is no effect, 100 is complete control) [15, 25]: 50 | Ragweed plant response rating [15, 26]: 80 | Pigweed plant response rating (0 to 100 scale, 0 is no effect, 100 is complete control) [16, 25]: 30 | Pigweed plant response rating [16, 26]: 40 | Barnyardgrass plant response rating (0 to 100 scale, 0 is no effect, 100 is complete control) [17, 25]: 90 | Barnyardgrass plant response rating [17, 26]: 90 | Ryegrass, Italian plant response rating (0 to 100 scale, 0 is no effect, 100 is complete control) [18, 25]: 0 | Ryegrass, Italian plant response rating [18, 26]: 20

Source: US12077503B2, “Substituted cyclic amides and their use as herbicides” (FMC CORPORATION, priority 2015, dated 2024)
